Measurements as given in ChEMBL document CHEMBL1240392 (Antimicrob Agents Chemother, 2010).
Values after ≈ are worked out from the molar mass of the structure shown. Active and inactive are the calls of the source. No cut-off for these calls is given here.

Assays:
Acinetobacter baumannii [1] = assay: Antimicrobial activity against Acinetobacter baumannii 940; format: functional
Acinetobacter baumannii [2] = assay: Antimicrobial activity against Acinetobacter baumannii 1417; format: functional
[3] = AUC in C57BL/6 mouse pneumonia model at 25 mg/kg, ip; format: ADME, organism-based; design: dose 25 mg/kg, route intraperitoneal; conditions: in vivo
Acinetobacter baumannii [4] = assay: Antimicrobial activity against Acinetobacter baumannii 940 after 24 hrs by time-kill assay; format: functional, organism-based
Acinetobacter baumannii [5] = assay: Antimicrobial activity against Acinetobacter baumannii infected in C57BL/6 mouse model assessed as reduction in bacterial count in blood at total dose of 100 mg/kg/day, ip administered as four divided doses after 72 hrs; format: functional; design: scale not given: the % may be the effect or the level left; conditions: route intraperitoneal
Acinetobacter baumannii [6] = assay: Antibacterial activity against Acinetobacter baumannii 1327 infected in New Zealand rabbit meningitis model assessed as reduction in bacterial count in CSF at 25 mg/kg, iv measured after 4 hrs of last dose (RVb = 5.2); format: functional
Acinetobacter baumannii [7] = assay: Antibacterial activity against Acinetobacter baumannii 1327 infected in New Zealand rabbit meningitis model assessed as reduction in bacterial count in CSF at 25 mg/kg, iv measured after 2 hrs of last dose (RVb = 5.1); format: functional
[8] = AUC in New Zealand rabbit meningitis model at 25 mg/kg, iv; format: ADME, organism-based, Oryctolagus cuniculus; design: dose 25 mg/kg, route intravenous; conditions: in vivo
[9] = T>MIC in Acinetobacter baumannii infected C57BL/6 mouse pneumonia model at 25 mg/kg, iv; format: functional
Acinetobacter baumannii [10] = assay: Antibacterial activity against Acinetobacter baumannii 1327 infected in New Zealand rabbit meningitis model assessed as reduction in bacterial count in CSF at 25 mg/kg, iv measured after 6 hrs of last dose (RVb = 5.5); format: functional
Acinetobacter baumannii [11] = assay: Antimicrobial activity against Acinetobacter baumannii infected in C57BL/6 mouse model assessed as reduction in bacterial count per gram of lung at total dose of 100 mg/kg/day, ip administered as four divided doses after 72 hrs (RVb = 10.6+/-0.27); format: functional, organism-based
Acinetobacter baumannii [12] = assay: Antimicrobial activity against Acinetobacter baumannii 506 after 24 hrs by time-kill assay; format: functional, organism-based
Acinetobacter baumannii [13] = assay: Antimicrobial activity against Acinetobacter baumannii 1417 after 24 hrs by time-kill assay; format: functional, organism-based
Acinetobacter baumannii [14] = assay: Antimicrobial activity against Acinetobacter baumannii 1327; format: functional
Acinetobacter baumannii [15] = assay: Antimicrobial activity against Acinetobacter baumannii 1327 after 24 hrs by time-kill assay; format: functional, organism-based
[16] = Cmax in New Zealand rabbit meningitis model at 25 mg/kg, iv; format: ADME, organism-based, Oryctolagus cuniculus; design: dose 25 mg/kg, route intravenous; conditions: in vivo
Oryctolagus cuniculus = assay: Antiinflammatory activity in Acinetobacter baumannii 1327-infected New Zealand rabbit meningitis model assessed as in WBC count at 25 mg/kg, iv after 6 hrs (RVb = 1 cells/ul); format: functional
[17] = Cmax in C57BL/6 mouse pneumonia model at 25 mg/kg, ip; format: ADME, organism-based; design: dose 25 mg/kg, route intraperitoneal; conditions: in vivo
Acinetobacter baumannii [18] = assay: Antimicrobial activity against Acinetobacter baumannii 506; format: functional
[19] = T>MIC in Acinetobacter baumannii infected New Zealand rabbit meningitis model at 25 mg/kg, iv; format: functional
Acinetobacter baumannii [20] = assay: Antibacterial activity against Acinetobacter baumannii infected in C57BL/6 mouse model assessed as survival rate at total dose of 100 mg/kg/day, ip administered as four divided doses measured after 72 hrs post last dose; format: functional; conditions: route intraperitoneal
[21] = Ratio of AUC to MIC for Acinetobacter baumannii 1327 in pharmacokinetic-pharmacodynamic C57BL/6 mouse pneumonia model at 30 mg/kg, im; format: functional; conditions: route intramuscular
[22] = Ratio of AUC to MIC for Acinetobacter baumannii 1327 in pharmacokinetic-pharmacodynamic New Zealand rabbit meningitis model at 120 mg/kg, im; format: functional; conditions: route intramuscular
[23] = T>MIC in Acinetobacter baumannii infected C57BL/6 mouse pneumonia model at 30 mg/kg, im; format: functional; conditions: route intramuscular
[24] = Ratio of Cmax to MIC for Acinetobacter baumannii 1327 in pharmacokinetic-pharmacodynamic C57BL/6 mouse pneumonia model at 30 mg/kg, im; format: functional; conditions: route intramuscular
[25] = Ratio of Cmax to MIC for Acinetobacter baumannii 1327 in pharmacokinetic-pharmacodynamic New Zealand rabbit meningitis model at 120 mg/kg, im; format: functional; conditions: route intramuscular
Acinetobacter baumannii [26] = assay: Antimicrobial activity against Acinetobacter baumannii clinical isolate; format: functional
Acinetobacter baumannii [27] = assay: Antibacterial activity against Acinetobacter baumannii infected in C57BL/6 mouse model assessed as survival rate at total dose of 120 mg/kg/day, im administered as four divided doses measured after 72 hrs post last dose relative to control; format: functional; conditions: route intramuscular
[28] = T>MIC in Acinetobacter baumannii infected New Zealand rabbit meningitis model at 120 mg/kg, im; format: functional; conditions: route intramuscular
Acinetobacter baumannii [29] = assay: Antimicrobial activity against Acinetobacter baumannii infected in C57BL/6 mouse model assessed as reduction in bacterial count in blood at total dose of 120 mg/kg/day, im administered as four divided doses after 72 hrs; format: functional; design: scale not given: the % may be the effect or the level left; conditions: route intramuscular
Acinetobacter baumannii [30] = assay: Antimicrobial activity against Acinetobacter baumannii infected in C57BL/6 mouse model assessed as reduction in bacterial count per gram of lung at total dose of 120 mg/kg/day, im administered as four divided doses after 72 hrs (RVb = 10.6+/-0.27); format: functional, organism-based
[31] = AUC in C57BL/6 mouse pneumonia model at 30 mg/kg, im; format: ADME, organism-based; design: dose 30 mg/kg, route intramuscular; conditions: in vivo
[32] = Cmax in C57BL/6 mouse pneumonia model at 30 mg/kg, im; format: ADME, organism-based; design: dose 30 mg/kg, route intramuscular; conditions: in vivo
[33] = Half life in C57BL/6 mouse pneumonia model at 30 mg/kg, im; format: ADME, organism-based; design: dose 30 mg/kg, route intramuscular; conditions: in vivo
in vivo = conditions: New Zealand, rabbit, im, 120 mg/kg
Description: Cmax in New Zealand rabbit meningitis model at 120 mg/kg, im

[34] = Half life in New Zealand rabbit meningitis model at 120 mg/kg, im; format: ADME, organism-based, Oryctolagus cuniculus; design: dose 120 mg/kg, route intramuscular; conditions: in vivo
[35] = AUC in New Zealand rabbit meningitis model at 120 mg/kg, im; format: ADME, organism-based, Oryctolagus cuniculus; design: dose 120 mg/kg, route intramuscular; conditions: in vivo

Question: What does the source list for `CO[C@H]1/C=C/O[C@@]2(C)Oc3c(C)c(O)c4c(O)c(c(/C=N/N5CCN(C)CC5)c(O)c4c3C2=O)NC(=O)/C(C)=C\C=C\[C@H](C)[C@H](O)[C@@H](C)[C@@H](O)[C@@H](C)[C@H](OC(C)=O)[C@@H]1C` [RIFAMPIN]?
Answer: MBC (Acinetobacter baumannii [1]): 4 µg/mL (≈ 4.86 µM); MIC (Acinetobacter baumannii [1]): 4 µg/mL (≈ 4.86 µM); MBC (Acinetobacter baumannii [2]): 8 µg/mL (≈ 9.72 µM); MIC (Acinetobacter baumannii [2]): 8 µg/mL (≈ 9.72 µM); AUC [3]: 24800 ng·h/mL; Activity (Acinetobacter baumannii [4]): Active; Activity (Acinetobacter baumannii [5]): 78.6%; Activity (Acinetobacter baumannii [6]): 4.5 log10CFU/ml; Activity (Acinetobacter baumannii [7]): 5.1 log10CFU/ml; AUC [8]: 40300 ng·h/mL; T>MIC [9]: 7.5 h; Activity (Acinetobacter baumannii [10]): 3.5 log10CFU/ml; Activity (Acinetobacter baumannii [11]): Active; Activity (Acinetobacter baumannii [12]): Active; Activity (Acinetobacter baumannii [13]): Active; MBC (Acinetobacter baumannii [14]): 8 µg/mL (≈ 9.72 µM); MIC (Acinetobacter baumannii [14]): 4 µg/mL (≈ 4.86 µM); Activity (Acinetobacter baumannii [15]): Active; Cmax [16]: 16600 ng/mL; Activity (Oryctolagus cuniculus): 8.2%; Cmax [17]: 15800 ng/mL; MBC (Acinetobacter baumannii [18]): 4 µg/mL (≈ 4.86 µM); MIC (Acinetobacter baumannii [18]): 4 µg/mL (≈ 4.86 µM); T>MIC [19]: 6.54 h; survival at 100 mg/kg/day (Acinetobacter baumannii [20]): 71.4%

Question: Which MBC (Acinetobacter baumannii [1]) does the source give for `C[C@@H](O)[C@H]1C(=O)N2C(C(=O)O)=C(SCCNC=N)C[C@H]12` [IMIPENEM ANHYDROUS] here?
Answer: 32 µg/mL (≈ 107 µM)

Question: And the MIC (Acinetobacter baumannii [1])?
Answer: 32 µg/mL (≈ 107 µM)

Question: And the MBC (Acinetobacter baumannii [2])?
Answer: 32 µg/mL (≈ 107 µM)

Question: What about the MIC (Acinetobacter baumannii [2]) of the same molecule?
Answer: 32 µg/mL (≈ 107 µM)

Question: And the Ratio [21]?
Answer: 0.35

Question: What about the Ratio [22] of the same molecule?
Answer: 1.58

Question: What about the Activity (Acinetobacter baumannii [4]) of the same molecule?
Answer: Active

Question: What about the “T>MIC” value [23] of the same molecule?
Answer: 0 h

Question: What about the Ratio [24] of the same molecule?
Answer: 0.73

Question: And the Ratio [25]?
Answer: 0.79

Question: What about the Activity (Acinetobacter baumannii [12]) of the same molecule?
Answer: Active

Question: What about the Activity (Acinetobacter baumannii [13]) of the same molecule?
Answer: Active

Question: What about the MIC (Acinetobacter baumannii [26]) of the same molecule?
Answer: ≥ 64 µg/mL

Question: And the MBC (Acinetobacter baumannii [14])?
Answer: 32 µg/mL (≈ 107 µM)

Question: What about the MIC (Acinetobacter baumannii [14]) of the same molecule?
Answer: 32 µg/mL (≈ 107 µM)

Question: What about the Activity (Acinetobacter baumannii [15]) of the same molecule?
Answer: Active

Question: And the survival at 120 mg/kg/day (Acinetobacter baumannii [27])?
Answer: 28.6%

Question: What about the “T>MIC” value [28] of the same molecule?
Answer: 0 h

Question: And the MBC (Acinetobacter baumannii [18])?
Answer: 32 µg/mL (≈ 107 µM)

Question: What about the MIC (Acinetobacter baumannii [18]) of the same molecule?
Answer: 32 µg/mL (≈ 107 µM)

Question: What about the Activity (Acinetobacter baumannii [29]) of the same molecule?
Answer: 30.8%

Question: And the Activity (Acinetobacter baumannii [30])?
Answer: Active

Question: For `C[C@@H](O)[C@H]1C(=O)N2C(C(=O)O)=C(SCCN=CN)C[C@H]12` [IMIPENEM ANHYDROUS], which AUC [31] is on record?
Answer: 11300 ng·h/mL

Question: And the Cmax [32]?
Answer: 23200 ng/mL

Question: And the half-life [33]?
Answer: 0.26 h

Question: What about the Cmax (in vivo) of the same molecule?
Answer: 25400 ng/mL

Question: What about the half-life [34] of the same molecule?
Answer: 1.74 h

Question: And the AUC [35]?
Answer: 50400 ng·h/mL
